This assay is described as follows: Effective concentration for phenotypic endpoint in tadpoles. Further details: species or system frog, Tadpole.

Each structure is given as a SMILES string.

Broadly, the EC50 is the concentration that produces a half-maximal response. A high value points to a need for much substance.

In the case of `CCCCCCO` [1-HEXANOL], the EC50 is about 700 µM.

Values taken from ChEMBL document CHEMBL1139547, “Anesthetic potency of two novel synthetic polyhydric alkanols longer than the n-alkanol cutoff: evidence for a bilayer-mediated mechanism of anesthesia?” (J Med Chem, 2005).
